Measured values published in patent US7199114B2, “Triterpene quaternary salts as biologically active surfactants” (The Regents of the University of Minnesota, priority 2002, dated 2007).

Legend:
[1] = Antifungal treatment on turf grass plots (Example 84), turf quality; assay type: in vivo, creeping bentgrass, cv. Pennlinks; details: 1 to 9 scale, 9 perfect, 17.8 g/1000 sq. ft. (Daconil Ultrex 3.2 oz./1000 sq. ft.)
Procedure: (§1) Plots of creeping bentgrass, cv. “Pennlinks,” were treated with water based sprays of the test compounds. Sprays were delivered by CO2-charged sprayer to deliver the equivalent of 2 gallons of spray per 1000 sq. ft of plot area. Plots were 15 sq. ft. each, and treatments were mixed to apply material to 75 sq. ft (5 replicates), although only 4 replicates were treated. The quaternary salts of triterpenes were applied at 17.8 g/1000 sq. ft. for 14 days. Daconil Ultrex® was applied at 3.2 oz./1000 sq. ft. for 14 days. The experiment used a randomized complete block design, with 4 replicates per treatment. Disease pressure was high. Pennlinks […] is moderately to highly susceptible to both dollar spot and brown patch. For brown patch, caused by Rhozoctonia sofani. a visual estimate of the percent of the plot area affected was recorded. Turf quality was estimated on a 1 to 9 scale, with 1 being worst and 9 being perfect. A rating of 6 is considered acceptable.

[2] = tested on: brown patch, caused by Rhozoctonia sofani; assay: Antifungal treatment on turf grass plots (Example 84), brown patch; assay type: in vivo; details: 17.8 g/1000 sq. ft. (Daconil Ultrex 3.2 oz./1000 sq. ft.)
Procedure: as §1

dollar spot = assay: Antifungal treatment on turf grass plots (Example 84), dollar spot count; assay type: in vivo; details: 17.8 g/1000 sq. ft. (Daconil Ultrex 3.2 oz./1000 sq. ft.)
Procedure: as §1

[3] = Turf plot trial at Clemson University (Example 85), turf quality; assay type: in vivo, creeping bentgrass, cv. Pennlinks; details: 1 to 9 scale, 50 grams active ingredient per 1000 square feet
Procedure: (§2) Plots of creeping bentgrass, cv. “Pennlinks,” were treated with water based sprays of the test compounds. Sprays were delivered by CO2-charged sprayer to deliver the equivalent of 2 gallons of spray per 1000 sq. ft of plot area. Plots were 15 sq. ft. each, and treatments were mixed to apply material to 75 sq. ft (5 replicates), although only 4 replicates were treated. […] Daconil Ultrex® was applied at 3.2 oz./1000 sq. ft. for 14 days. The experiment used a randomized complete block design, with 4 replicates per treatment. Disease pressure was high. Pennlinks […] is moderately to highly susceptible to both dollar spot and brown patch. For brown patch, caused by Rhozoctonia sofani. a visual estimate of the percent of the plot area affected was recorded. Turf quality was estimated on a 1 to 9 scale, with 1 being worst and 9 being perfect. A rating of 6 is considered acceptable.
(§3) Plots of creeping bentgrass, cv. Pennlinks, were treated with water-based sprays as in Example 84 at Clemson University. Treatment application dates were May 7. May 14, May 28, and June 11. Plots were rated visually, estimating the percent of the area affected by dollar spot fungus […]. Turf quality was rated on a 1 to 9 scale, with 9 being perfect turf, as in Example 84. Disease pressure was moderately high to high when the trial was initiated, with existing dollar spot present.

[4] = tested on: dollar spot fungus (Agrostis stolonifera); assay: Turf plot trial at Clemson University (Example 85), area affected by dollar spot; assay type: in vivo; details: 50 grams active ingredient per 1000 square feet
Procedure: as §2, §3

[5] = Table 2 experiment, Jul. 2, 2001
[6] = Table 2 experiment, Jul. 9, 2001
[7] = Table 2 experiment, Jul. 16, 2001
[8] = Table 2 experiment, Jun. 25, 2001
[9] = Table 3 experiment, Jul. 2, 2001
[10] = Table 3 experiment, Jul. 9, 2001
[11] = Table 3 experiment, Jun. 25, 2001
[12] = Table 3 experiment, Jul. 16, 2001

SMILES	Turf quality [1, 5]	Turf quality [1, 6]	Turf quality [1, 7]	Turf quality [1, 8]	Turf quality [1, 9]	Turf quality [1, 10]	Turf quality [1, 11]	Brown Patch % of plot infected [2, 5] [%]	Brown Patch % of plot infected [2, 6] [%]	Brown Patch % of plot infected [2, 7] [%]	Brown Patch % of plot infected [2, 8] [%]	Brown Patch % of plot infected [2, 9] [%]	Brown Patch % of plot infected [2, 10]	Brown Patch % of plot infected [2, 12] [%]	Brown Patch % of plot infected [2, 11] [%]	Dollar Spot # of spots per plot (dollar spot; [5]) [spots per plot]	Dollar Spot # of spots per plot (dollar spot; [7]) [spots per plot]	Dollar Spot # of spots per plot (dollar spot; [8]) [spots per plot]	Dollar Spot # of spots per plot (dollar spot; [9])	Dollar Spot # of spots per plot (dollar spot; [10]) [spots per plot]	also measured
C=C(C)[C@@H]1CC[C@]2(COC(=O)C[n+]3ccccc3)CC[C@]3(C)C(CCC4[C@@]5(C)CC[C@H](OC(=O)C[n+]6ccccc6)C(C)(C)C5CC[C@]43C)C12.[Cl-].[Cl-] (some centres unmarked) [Compound 1, Lup-20(29)-ene3,28-bis-(N-pyridiniumacetate) dichloride]	4.50	6.00	5.57	4.50	4.50	5.38	4.88	35.0	13.8	3.8	18.8	24.0	20.5%	8.6	15.8	22.3	2.8	21.0	suppressed dollar spot	13.0	Dollar Spot # of spots per plot (dollar spot; Table 3 experiment, Jul. 2, 2001, listed as Comp. 1): 15.8 spots per plot; Dollar Spot # of spots per plot (dollar spot; [12]): 1.5 spots per plot; Dollar Spot # of spots per plot (dollar spot; [11]): 11.5 spots per plot
C=C(C)[C@@H]1CC[C@]2(COC(=O)C[N+](C)(C)CCN(C)C)CC[C@]3(C)C(CCC4[C@@]5(C)CC[C@H](OC(=O)C[N+](C)(C)CCN(C)C)C(C)(C)C5CC[C@]43C)C12.[Cl-].[Cl-] (some centres unmarked) [Compound 7, Lup-20(29)-ene-3,28-bis[(tetramethylethylenediamine-N-yl)acetate] dichloride]	4.25	4.50	5.60	4.50	4.50	5.88	4.36	20.5	20.0	3.8	24.5	25.5	significantly suppress brown patch	8.8	17.5	22.3	2.3	18.3	21.5 spots per plot	14.5	Brown Patch % of plot infected ([2]; Table 3 experiment, Jul. 9, 2001, listed as Comp. 7): 10.8%; Dollar Spot # of spots per plot (dollar spot; [12]): 2.0 spots per plot; Dollar Spot # of spots per plot (dollar spot; [11]): 14.8 spots per plot
C=C(C)[C@@H]1CC[C@]2(COC(=O)CC[n+]3ccccc3)CC[C@]3(C)C(CCC4[C@@]5(C)CC[C@H](OC(=O)CC[n+]6ccccc6)C(C)(C)C5CC[C@]43C)C12.[Cl-].[Cl-] (some centres unmarked) [Compound 14, Lup-20 (29)-ene-3,28-bis (N-pyridinium-3-propionate) dichloride]	4.25	4.63	5.60	4.38	4.75	5.00	4.88	36.8	25.0	5.0	25.8	31.3	16.5%	7.5	16.3	21.8	3.5	22.3	20.8 spots per plot	14.5	Dollar Spot # of spots per plot (dollar spot; [12]): 2.8 spots per plot; Dollar Spot # of spots per plot (dollar spot; [11]): 16.3 spots per plot
C=C(C)[C@@H]1CC[C@]2(COC(=O)C[n+]3ccc(N(C)C)cc3)CC[C@]3(C)C(CCC4[C@@]5(C)CC[C@H](OC(=O)C[n+]6ccc(N(C)C)cc6)C(C)(C)C5CC[C@]43C)C12.[Cl-].[Cl-] (some centres unmarked) [Compound 46, Lup-20(29)-ene-3,28-bis[N-(4-dimethylaminopyridinium)acetate] dichloride]																					Turf quality ([3]; Table 5, Jun. 3, 2002): 5.40 ab; Turf quality ([3]; Table 5, Jun. 17, 2002): 4.52 ab; Turf quality ([3]; Table 5, May 27, 2002): 4.00 ab; Turf quality ([3]; Table 6, May 8, 2002): 3.25 a; Turf quality ([3]; Table 6, May 13, 2002): 3.38 a; Turf quality ([3]; Table 6, May 20, 2002): 3.50 a; % of area infected ([4]; Table 5 c2, Jun. 3, 2002): 23.5 a %; % of area infected ([4]; Table 5 c4, Jun. 3, 2002): 24.0 a %; % of area infected ([4]; Table 6, May 8, 2002): 30.5 a %; % of area infected ([4]; Table 6, May 13, 2002): 28.0 a %; % of area infected ([4]; Table 6, May 20, 2002): 25.0 bc %; % of area infected ([4]; Table 6, May 27, 2002): 26.8 bcd %
C=C(C)[C@@H]1CC[C@]2(CO)CC[C@]3(C)C(CCC4[C@@]5(C)CC[C@H](OC(=O)C[N+](C)(C)CCCCCCCCCCCCCC)C(C)(C)C5CC[C@]43C)C12.[Cl-] (some centres unmarked) [Compound 56]																					Turf quality ([3]; Table 5, Jun. 3, 2002): 5.30 ab; Turf quality ([3]; Table 5, Jun. 17, 2002): 5.38 ab; Turf quality ([3]; Table 5, May 27, 2002): 4.47 ab; Turf quality ([3]; Table 6, May 8, 2002): 3.13 a; Turf quality ([3]; Table 6, May 13, 2002): 3.00 a; Turf quality ([3]; Table 6, May 20, 2002): 3.03 ab; % of area infected ([4]; Table 5 c2, Jun. 3, 2002): 22.0 a %; % of area infected ([4]; Table 5 c4, Jun. 3, 2002): 19.3 ab %; % of area infected ([4]; Table 6, May 8, 2002): 31.0 a %; % of area infected ([4]; Table 6, May 13, 2002): 26.5 a %; % of area infected ([4]; Table 6, May 20, 2002): 32.0 bc %; % of area infected ([4]; Table 6, May 27, 2002): 21.8 cd %
